In US9718770B2, “Substituted thioureas as heat shock protein 70 inhibitors” (Institute of Pharmacology and Toxicology Academy of …, priority 2013, dated 2017):

Legend:
[1] = test system: SK/Lap^R1.0; test: CDI of example compounds and Lapatinib (ATPlite cell survival); assay type: cell-based; details: compound 5 μM + Lapatinib 1 μM, 72 h; secondary Lapatinib-resistant human breast cancer cells; CDI<1 synergistic
Experimental: (§1) Cells: (BT474 and SK-BR3 are Lapatinib-sensitive human breast cancer cell strains; BT/LapR and SK/LapR are secondary Lapatinib-resistant human breast cancer cell strains upon Lapatinib stimulation; MDA-MB-361 and MDA-MB-453 are natural Lapatinib-resistant human breast cancer cell strains. BT474, MDA-MB-361, SK-BR3 and MDA-MB-453 are from American Type Culture Collection (ATCC))
(§2) In a 100 mm culture dish full of adherent cells, digestion with 1 ml 0.25% pancreatin (GIBCO) was carried out at 37° C. for 5 min, and the reaction was stopped with 2 ml medium (containing 10% FBS, GIBCO). The cells were dispersed and collected. After cell count, the cells were diluted to a concentration of 1×10^5 cells/ml, and were seeded to a 96-well plate at 50 μl/well, 5000 cell/well, 60 wells in total, PBS instead of cells was added to the wells of the outmost circle, and the incubation was carried out at 37° C. for 24 h for adherence.
(§3) For the sample group, samples to be tested were diluted with DMSO to a final concentration of 5 μM; to control wells, the medium containing the same concentration of solvent corresponding to the compound was added, the concentrations of the compounds were identical in each well, 5 wells in parallel were set for each concentration, 25 μL/well, and 25 μL medium was added to each well (for the combination group, 25 μL Lapatinib was added to reach a final concentration of 1 μM). The incubation was carried out at 37° C. for 72 h.
(§4) To each well, 50 μL ATPlite kit substrate solution was added. The plate was under shaking for 3 min, and was then placed in dark for 10 min. The lysis supernatant was drawn at 100 μL/well, and placed in a luminescent plate. The incubated luminescent plate was placed in an iluminescence apparatus, and the iluminescent value was read.
(§5) Data Processing Cell survival rate (%)=Experimental group RLU/control group RLU×100%
(§6) Coefficient of drug interaction (CDI) is used to evaluate the interaction of two drugs, CDI is calculated in accordance with the following formula: CDI=AB/(A×B)×100%. The calculation is performed according to the number of live cells (luminescent value), if CDI<1, the two drugs have a synergistic effect; if CDI<0.7, the synergistic effect is very significant; if CDI=1, the effect of the two drugs in combination is the sum of the effects of the two drugs; if CDI>1, the two drugs have an antagonistic effect.

[2] = test system: BT/Lap^R1.0; test: as above; assay type: cell-based; details: compound 5 μM + Lapatinib 1 μM, 72 h; secondary Lapatinib-resistant human breast cancer cells; CDI<1 synergistic
Experimental: as §1, §2, §3, §4, §5, §6

[3] = target: T1, Hsp70 ATPase (Homo sapiens, UniProt P0DMV8); test: Inhibition of Hsp70 ATPase activity (malachite green); assay type: biochemical; details: 200 μM; repeated screening carried out twice; Hsp70/Hsp40, 1 mM ATP; read-out: Inhibitory rate (%) on activity of Hsp70 ATPase
T1 construct: made in house; host or cells: E. coli
T1 sequence (P0DMV8 2-641 limits assumed): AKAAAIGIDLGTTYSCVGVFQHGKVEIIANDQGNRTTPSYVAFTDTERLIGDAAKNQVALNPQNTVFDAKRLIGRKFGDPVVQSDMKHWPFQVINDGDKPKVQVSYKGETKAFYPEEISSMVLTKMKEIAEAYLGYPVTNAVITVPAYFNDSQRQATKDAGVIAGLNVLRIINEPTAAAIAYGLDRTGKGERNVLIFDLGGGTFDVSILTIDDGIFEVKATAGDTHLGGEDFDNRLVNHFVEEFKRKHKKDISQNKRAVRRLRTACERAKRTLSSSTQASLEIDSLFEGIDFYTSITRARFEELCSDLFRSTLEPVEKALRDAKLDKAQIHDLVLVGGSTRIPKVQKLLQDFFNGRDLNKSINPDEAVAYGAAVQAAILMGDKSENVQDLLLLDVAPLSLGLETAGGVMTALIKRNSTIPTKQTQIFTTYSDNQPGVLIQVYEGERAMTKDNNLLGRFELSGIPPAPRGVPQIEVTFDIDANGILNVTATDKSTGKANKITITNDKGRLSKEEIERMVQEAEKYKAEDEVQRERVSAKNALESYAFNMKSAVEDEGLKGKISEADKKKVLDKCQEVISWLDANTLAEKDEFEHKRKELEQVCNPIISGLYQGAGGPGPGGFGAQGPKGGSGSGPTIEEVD
Experimental: (1) Protein: Humanized Hsp70, Hsp40, expressed by E. coli.
(2) Sample to be tested: 26 compound solids with different colors and states. Positive drugs AZ (CAS:1054543-47-3) and VER 155008 (CAS: 1134156-31-2) were synthesized in the laboratory.
(4) ATPase Assay buffer: • 0.017% Triton X-100; • 100 mM Tris-HCl; • 20 mM KCl; • 6 mM MgCl2, pH 7.4.
1) 13.08 μl DnaK (0.15 mg/mL, 2.14 μM), 1.96 μl DnaJ (1 mg/mL, 25 μM) were dissolved in 7.96 μl Assay Buffer (0.017% Triton X-100, 100 mM Tris-HCl, 20 mM KCl, and 6 mM MgCl2, pH 7.4), and the resultant solution was added to each well of the 96 well plate;
2) to each well of the 96 well plate, 1 μL sample to be tested (5 mM) or DMSO (solvent) was added, and vortexed with a Vortex agitator for 10 min; and then standing at 37° C. for 30 min;
3) to each well, 1 μL 25 mM ATP was added, to trigger the enzymatic reaction; (in each well, the final reaction volume was 25 μL, the final concentration of DnaK was 1.12 μM, the final concentration of DnaJ was 1.96 μM, the final concentration of DMSO was 4%, the final concentration of Triton X-100 was 0.01%, the final concentration of ATP was 1 mM, and the final concentration of sample to be tested was 200 μM), the enzymatic reaction was carried out at 37° C. for 3 h;
4) 80 μL Malachite green staining solution was then added to each well, and was vortexed gently;
5) 10 μL of 34% citrate sodium was then added immediately, and vortexed gently, to stop the ATP hydrolysis not caused by ATPase;
6) the resultant mixture was mixed thoroughly at 37° C. for 15 min, and OD620 was measured.
The inhibitory rate of Hsp70 ATPase activity is calculated in accordance with the following formula: Inhibitory rate (%)=(DMSO well OD−Experimental well OD)/(DMSO well OD−Blank well OD)×100
Criteria for preliminary screening: during preliminary screening, an example compound is regarded as effective in inhibition as long as its inhibitory rate is above 20% for Hsp70 ATPase at 200 μM.

[4] = test system: MDA-MB-453; test: CDI of example compounds and Lapatinib (ATPlite cell survival); assay type: cell-based; set-up: key: CDI = AB/(A×B); <1 synergistic; details: compound 5 μM + Lapatinib 1 μM, 72 h; natural Lapatinib-resistant human breast cancer cells; CDI<1 synergistic
Experimental: as §1, §2, §3, §4, §5, §6

[5] = test system: BT474; test: as above; assay type: cell-based; set-up: key: CDI = AB/(A×B); <1 synergistic; details: compound 5 μM + Lapatinib 1 μM, 72 h; Lapatinib-sensitive human breast cancer cells; CDI<1 synergistic, <0.7 very significant, >1 antagonistic
Experimental: as §1, §2, §3, §4, §5, §6

[6] = test system: MDA-MB-361; test: as above; assay type: cell-based; set-up: key: CDI = AB/(A×B); <1 synergistic; details: compound 5 μM + Lapatinib 1 μM, 72 h; natural Lapatinib-resistant human breast cancer cells; CDI<1 synergistic
Experimental: as §1, §2, §3, §4, §5, §6

[7] = test system: SK-BR3; test: as above; assay type: cell-based; set-up: key: CDI = AB/(A×B); <1 synergistic; details: compound 5 μM + Lapatinib 1 μM, 72 h; Lapatinib-sensitive human breast cancer cells; CDI<1 synergistic
Experimental: as §1, §2, §3, §4, §5, §6

Compound	CDI of example compounds and Lapatinib, SK/Lap^R1.0 [1]	CDI of example compounds and Lapatinib, BT/Lap^R1.0 [2]	inhibition at 200 µM [3] [%]	CDI of example compounds and Lapatinib, MDA-MB-453 [4]	CDI of example compounds and Lapatinib, BT474 [5]	CDI of example compounds and Lapatinib, MDA-MB-361 [6]	CDI of example compounds and Lapatinib, SK-BR3 [7]
CC(C)CC(NC(=O)/C=C/c1ccccc1)NC(=S)Nc1ccccc1 (stereo not shown) [Example 38, (2E)-N-[3-methyl-1-(3-phenylthioureido)butyl] cinnamamide]	0.93	0.93	2.51	1.21	0.86	1	1.16
O=C(/C=C/c1ccccc1)NC(NC(=S)Nc1ccccn1)C1CC1 (stereo not shown) [Example 37, (2E)-N-[cyclopropyl-(3-pyridin-2-ylthioureido)-methyl] cinnamamide]	1.03	1.02	1.51	1.34	0.98	0.99	0.99
COc1cc(/C=C/C(=O)NC(NC(=S)NC2CCCCC2)C(C)(C)C)cc(OC)c1OC (stereo not shown) [Example 52, (2E)-N-[1-(3-cyclohexylthioureido)-2,2-dimethylpropyl]-3-(3,4,5-trimethoxyphenyl) acrylamide]	1.11	0.86	35.8	1.18	0.56	0.92	0.88
COc1cc(/C=C/C(=O)NC(CC(C)C)NC(=S)NC2CCCCC2)cc(OC)c1OC (stereo not shown) [Example 51, (2E)-N-[1-(3-cyclohexylthioureido)-3-methylbutyl]-3-(3,4,5-trimethoxyphenyl) acrylamide]	1.38	0.94	46.2	1.27	0.73	1.09	0.96
CC(C)(C)C(NC(=O)/C=C/c1ccccc1)NC(=S)NC1CCCCC1 (stereo not shown) [Example 56, N-[1-(3-cyclohexylthioureido)-2,2-dimethylpropyl] cinnamamide]	1	1.21	21.4	1.32	0.77	0.96	1.19
COc1cc(/C=C/C(=O)NC(NC(=S)Nc2cccnc2)C2CC2)cc(OC)c1OC (stereo not shown) [Example 29, (2E)-N-[cyclopropyl-(3-pyridin-3-ylthioureido)-methyl]-3-(3,4,5-trimethoxyphenyl) acrylamide]	1.26	0.99	2.55	1.05	1.05	1	0.98
COc1cc(/C=C/C(=O)NC(CC(C)C)NC(=S)Nc2cccnc2)cc(OC)c1OC (stereo not shown) [Example 25, (2E)-N-[3-methyl-1-(3-pyridin-3-ylthioureido)butyl]-3-(3,4,5-trimethoxyphenyl) acrylamide]	0.93	0.97	38.5	1.2	0.94	0.93	1.04
CC(C)(C)CC(NC(=O)/C=C/c1ccccc1)NC(=S)Nc1ccccc1 (stereo not shown) [Example 39, (2E)-N-[3,3-dimethyl-1-(3-phenylthioureido)butyl] cinnamamide]	0.95	1.19	18.4	1.2	0.79	0.92	1.2
Cc1ccccc1NC(=S)NC(NC(=O)/C=C/c1ccccc1)C1CC1 (stereo not shown) [Example 49, N-[cyclopropyl-(3-o-methylphenylthioureido)-methyl] cinnamamide]	0.99	0.96	65.4	1.2	0.9	0.95	1.08
COc1cc(/C=C/C(=O)NC(NC(=S)Nc2ccccn2)C2CC2)cc(OC)c1OC (stereo not shown) [Example 30, (2E)-N-[cyclopropyl-(3-pyridin-2-ylthioureido)-methyl]-3-(3,4,5-trimethoxyphenyl) acrylamide]	0.82	0.93	-5.66	1.28	0.94	0.85	0.94
